From patent US20050170966A1, “Surfactants and surfactant compositions” (priority 2002, published 2005)

Columns and labels:
Type in all cases: in vivo
[1] = test system: Agropyron repens (couch grass); assay: Adjuvants for Glyphosate, test plots, visual score
Protocol: (§1) In this Example the effect of compounds of the invention as adjuvants for Glyphosate as a herbicide against the species Agropyron repens (couch grass) and Abutilon theophrasti (velvetleaf) using FAE1 as a control adjuvant was tested. Test plots were treated by spraying (spray volume 200 l.ha^−1) at varying doses of glyphosate; 180 and 360 g(a.e.).ha^−1 for A. repens and 250 and 500 g(active).ha^−1 for A. theophrasti and ratios of glyphosate to adjuvant (8:1,4:1 and 2:1 by weight). The effect of the herbicide formulations was assessed by visual comparison with untreated control blocks 6, 13 and 19 days after treatment (DAT), scoring as percentages with 0=no effect and 100=complete kill. The results are set out in Table 2 below

[2] = test system: Abutilon theophrasti (velvetleaf); assay: Adjuvants for Glyphosate, test plots, visual score
Protocol: as §1

[3] = test system: mixtures of weeds: Cockspur (Echinochloa crus-galli), Fat-hen (Chenopodium album), Smartweed (Polygonum persicaria); assay: Field trial: adjuvant effect on Glyphosate herbicidal activity on mixed weed plots; conditions: glyphosate 1080 g(a.e.).ha^-1, adjuvant 540 g.ha^-1 (2:1)
Protocol: This Example tests the effect of adjuvants on Glyphosate herbicidal activity under field conditions. The herbicide was applied to test plots of weeds at a rate of 1080 g(a.e.).ha^−1 (350 l.ha^−1 of spray containing 3.086 g.l^−1 a.e.) with a weight ratio of active to adjuvant of 2:1=540 g(adjuvant).ha^−1. Spray plots were treated with the herbicide formulations, one of each of four adjuvants of the invention (SE1, SE2, SE3, and SE4) a fatty amine ethoxylate (FAE1) for comparison, or left untreated as controls (no weed control). The spray plots were in a completely randomised block design with 3 replicates of 3×5 m plots. the sprayed plots were sprayed using a compressed-air AZO sprayer at a pressure of 2.5 bar, equipped with Teejet XR80015VS nozzles. During this trial, it rained for about 15 minutes about 2 hours after spraying, giving a good indication of the rainfastness off the formulations tested.
The test plots used mixtures of the following weeds at the 2 to 4 leaf stage:
The results of spraying were evaluated by visual comparison with untreated control blocks 12, 20 and 35 days after treatment (DAT), assessing chlorosis (chlor) and growth inhibition (inhib) as percentages with 0=no effect and 100=complete kill as compared with the untreated controls.

[4] = test system: Savoy cabbage; assay: Field trial, lower glyphosate rate, varying adjuvant rate; conditions: Sav C, 14 DAT
Protocol: (§2) In this Example, adjuvants of the invention (SE2), plus TAE1 as control, were tested in field trials in formulations including glyphosate (isopropylamine salt) as a herbicide on flax, pea, Savoy cabbage (Sav C) and Italian ryegrass (It R) as target crops. The application rate was 1080 g(a.e).ha^−1, with adjuvant at an application rate of 405 g.ha^−1 (75% of the normal application rate for adjuvants in such formulations of 540 g.ha^−1). The effectiveness of the formulations was by visual assessment of Growth Reduction (Gr Red) and Chlorosis/Necrosis (Chlor) 6 DAT with the values being reported in % (related to an untreated control=0% effect). Further field trial runs were carried out similar to Example AE4 on pea and Savoy cabbage as target crops at a lower application rate of glyphosate (570 g(a.e.).ha^−1) and using varying application rates for the adjuvant (135, 270 and 405 g.ha^−1) with the formulation components being mixed in the spray tank.

[5] = test system: pea; assay: as above; conditions: 14 DAT
Protocol: as §2

[6] = glyphosate 570 g(a.e.).ha^-1, adjuvant 135 g/ha
[7] = glyphosate 570 g(a.e.).ha^-1, adjuvant 270 g/ha
[8] = glyphosate 570 g(a.e.).ha^-1, adjuvant 405 g/ha

## 1-[Bis-(2-hydroxyethyl)-amino]-2-hydroxypropane-3-(Alc1 15-ethoxylate) [SE2]
[1]; glyphosate 180 g.ha^-1, ratio 2:1, 6 DAT
  visual herbicide effect score: 17.9%
[1]; glyphosate 180 g.ha^-1, ratio 2:1, 13 DAT
  visual herbicide effect score: 46.4%
[1]; glyphosate 180 g.ha^-1, ratio 2:1, 19 DAT
  visual herbicide effect score: 82.1%
[1]; glyphosate 180 g.ha^-1, ratio 4:1, 6 DAT
  visual herbicide effect score: 17.9%
[1]; glyphosate 180 g.ha^-1, ratio 4:1, 13 DAT
  visual herbicide effect score: 39.3%
[1]; glyphosate 180 g.ha^-1, ratio 4:1, 19 DAT
  visual herbicide effect score: 60%
[1]; glyphosate 180 g.ha^-1, ratio 8:1, 6 DAT
  visual herbicide effect score: 25%
[1]; glyphosate 180 g.ha^-1, ratio 8:1, 13 DAT
  visual herbicide effect score: 32.1%
[1]; glyphosate 180 g.ha^-1, ratio 8:1, 19 DAT
  visual herbicide effect score: 50%
[1]; glyphosate 360 g.ha^-1, ratio 2:1, 6 DAT
  visual herbicide effect score: 32.1%
[1]; glyphosate 360 g.ha^-1, ratio 2:1, 13 DAT
  visual herbicide effect score: 60.7%
[1]; glyphosate 360 g.ha^-1, ratio 2:1, 19 DAT
  visual herbicide effect score: 100%
[1]; glyphosate 360 g.ha^-1, ratio 4:1, 6 DAT
  visual herbicide effect score: 25%
[1]; glyphosate 360 g.ha^-1, ratio 4:1, 13 DAT
  visual herbicide effect score: 50%
[1]; glyphosate 360 g.ha^-1, ratio 4:1, 19 DAT
  visual herbicide effect score: 92.9%
[1]; glyphosate 360 g.ha^-1, ratio 8:1, 6 DAT
  visual herbicide effect score: 25%
[1]; glyphosate 360 g.ha^-1, ratio 8:1, 13 DAT
  visual herbicide effect score: 46.4%
[1]; glyphosate 360 g.ha^-1, ratio 8:1, 19 DAT
  visual herbicide effect score: 78.6%
[2]; glyphosate 250 g.ha^-1, ratio 2:1, 6 DAT
  visual herbicide effect score: 25%
[2]; glyphosate 250 g.ha^-1, ratio 2:1, 13 DAT
  visual herbicide effect score: 32.1%
[2]; glyphosate 250 g.ha^-1, ratio 2:1, 19 DAT
  visual herbicide effect score: 42.9%
[2]; glyphosate 250 g.ha^-1, ratio 4:1, 6 DAT
  visual herbicide effect score: 17.9%
[2]; glyphosate 250 g.ha^-1, ratio 4:1, 13 DAT
  visual herbicide effect score: 28.6%
[2]; glyphosate 250 g.ha^-1, ratio 4:1, 19 DAT
  visual herbicide effect score: 35.7%
[2]; glyphosate 250 g.ha^-1, ratio 8:1, 6 DAT
  visual herbicide effect score: 21.4%
[2]; glyphosate 250 g.ha^-1, ratio 8:1, 13 DAT
  visual herbicide effect score: 28.6%
[2]; glyphosate 250 g.ha^-1, ratio 8:1, 19 DAT
  visual herbicide effect score: 42.9%
[2]; glyphosate 500 g.ha^-1, ratio 2:1, 6 DAT
  visual herbicide effect score: 28.6%
[2]; glyphosate 500 g.ha^-1, ratio 4:1, 6 DAT
  visual herbicide effect score: 28.6%
[2]; glyphosate 500 g.ha^-1, ratio 8:1, 6 DAT
  visual herbicide effect score: 25%
[2]; glyphosate 500 g.ha^-1, ratio 8:1, 13 DAT
  visual herbicide effect score: 50%
[2]; glyphosate 500 g.ha^-1, ratio 8:1, 19 DAT
  visual herbicide effect score: 53.6%
[3]; 12 DAT
  inhib (%) growth inhibition: 70%
[3]; 12 DAT, 0=no effect, 100=complete kill
  chlor (%) chlorosis: 68%
[3]; 20 DAT
  chlor (%) chlorosis: 75%
  inhib (%) growth inhibition: 75%
[3]; 35 DAT
  chlor (%) chlorosis: 77%
  inhib (%) growth inhibition: 77%
[4]; [6]
  % necrosis: 40%
[4]; [7]
  % necrosis: 40%
[4]; [8]
  % necrosis: 60%
[5]; [6]
  % necrosis: 70%
[5]; [7]
  % necrosis: 90%
[5]; [8]
  % necrosis: 95%
